In ChEMBL document CHEMBL1141384, “Discovery of a potent, selective, and orally active human epidermal growth factor receptor-2 sheddase inhibitor for the treatment of cancer” (J Med Chem, 2007):
The source made the active and inactive calls. No cut-off for these calls is given here.

Tests used:
[1] = target: T1, Disintegrin and metalloproteinase domain-containing protein 10 (Homo sapiens, UniProt O14672); test: Inhibition of ADAM10
T1 sequence (O14672 whole entry): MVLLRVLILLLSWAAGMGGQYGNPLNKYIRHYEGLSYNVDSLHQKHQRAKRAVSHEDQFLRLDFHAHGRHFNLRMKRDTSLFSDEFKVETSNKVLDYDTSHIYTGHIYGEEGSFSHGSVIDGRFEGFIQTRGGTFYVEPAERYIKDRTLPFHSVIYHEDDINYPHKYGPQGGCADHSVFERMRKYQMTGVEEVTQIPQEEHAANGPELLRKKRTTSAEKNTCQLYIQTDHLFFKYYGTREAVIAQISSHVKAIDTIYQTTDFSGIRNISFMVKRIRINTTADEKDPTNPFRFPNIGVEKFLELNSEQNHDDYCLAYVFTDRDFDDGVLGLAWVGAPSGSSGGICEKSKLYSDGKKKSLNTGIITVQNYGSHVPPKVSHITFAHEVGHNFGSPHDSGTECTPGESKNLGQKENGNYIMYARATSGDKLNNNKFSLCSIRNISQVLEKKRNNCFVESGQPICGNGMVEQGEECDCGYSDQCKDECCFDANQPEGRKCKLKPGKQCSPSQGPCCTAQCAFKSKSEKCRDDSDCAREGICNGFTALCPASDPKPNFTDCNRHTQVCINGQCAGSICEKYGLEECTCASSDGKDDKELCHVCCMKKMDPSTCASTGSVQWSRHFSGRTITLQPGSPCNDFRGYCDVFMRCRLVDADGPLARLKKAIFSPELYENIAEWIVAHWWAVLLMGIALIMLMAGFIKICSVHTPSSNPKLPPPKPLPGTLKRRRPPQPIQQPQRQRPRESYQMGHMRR

Interstitial collagenase = target: T2, Interstitial collagenase (Homo sapiens, UniProt P03956); test: Inhibition of MMP1
T2 sequence (P03956 whole entry): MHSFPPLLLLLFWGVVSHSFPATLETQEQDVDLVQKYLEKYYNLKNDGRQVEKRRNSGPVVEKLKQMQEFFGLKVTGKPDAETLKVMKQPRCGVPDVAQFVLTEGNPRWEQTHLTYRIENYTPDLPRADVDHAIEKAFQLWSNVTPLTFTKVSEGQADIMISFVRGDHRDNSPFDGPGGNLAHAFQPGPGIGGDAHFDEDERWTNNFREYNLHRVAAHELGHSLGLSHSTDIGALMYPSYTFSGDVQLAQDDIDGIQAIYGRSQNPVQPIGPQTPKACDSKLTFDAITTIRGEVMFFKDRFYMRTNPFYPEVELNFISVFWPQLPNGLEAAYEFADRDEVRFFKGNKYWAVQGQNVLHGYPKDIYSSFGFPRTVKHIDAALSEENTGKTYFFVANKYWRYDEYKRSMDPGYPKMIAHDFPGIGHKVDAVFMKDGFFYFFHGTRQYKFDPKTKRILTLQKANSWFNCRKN

[2] = target: 72 kDa type IV collagenase (Homo sapiens, UniProt P08253); test: Inhibition of MMP2
Chain of 72 kDa type IV collagenase (P08253 whole entry): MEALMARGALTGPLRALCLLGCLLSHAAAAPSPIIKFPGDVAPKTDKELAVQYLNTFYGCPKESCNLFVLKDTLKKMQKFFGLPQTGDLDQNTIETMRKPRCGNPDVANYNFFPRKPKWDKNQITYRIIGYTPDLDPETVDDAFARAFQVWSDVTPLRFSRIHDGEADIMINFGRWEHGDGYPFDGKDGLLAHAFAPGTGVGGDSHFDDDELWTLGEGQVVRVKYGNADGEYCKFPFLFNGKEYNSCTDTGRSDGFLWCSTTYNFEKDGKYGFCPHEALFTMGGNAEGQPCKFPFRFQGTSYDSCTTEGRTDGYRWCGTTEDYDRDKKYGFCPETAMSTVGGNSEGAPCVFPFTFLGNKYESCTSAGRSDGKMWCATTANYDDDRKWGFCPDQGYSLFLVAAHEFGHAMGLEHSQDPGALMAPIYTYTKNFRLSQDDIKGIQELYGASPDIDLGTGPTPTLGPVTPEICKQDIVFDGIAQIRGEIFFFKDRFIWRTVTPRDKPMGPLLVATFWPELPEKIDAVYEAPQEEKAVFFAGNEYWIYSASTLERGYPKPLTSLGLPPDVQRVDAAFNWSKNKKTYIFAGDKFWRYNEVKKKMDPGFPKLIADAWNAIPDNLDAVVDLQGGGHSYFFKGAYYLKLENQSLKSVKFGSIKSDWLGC

Stromelysin-1 = Stromelysin-1 (Homo sapiens, UniProt P08254); test: Inhibition of MMP3
Chain of Stromelysin-1 (P08254 whole entry): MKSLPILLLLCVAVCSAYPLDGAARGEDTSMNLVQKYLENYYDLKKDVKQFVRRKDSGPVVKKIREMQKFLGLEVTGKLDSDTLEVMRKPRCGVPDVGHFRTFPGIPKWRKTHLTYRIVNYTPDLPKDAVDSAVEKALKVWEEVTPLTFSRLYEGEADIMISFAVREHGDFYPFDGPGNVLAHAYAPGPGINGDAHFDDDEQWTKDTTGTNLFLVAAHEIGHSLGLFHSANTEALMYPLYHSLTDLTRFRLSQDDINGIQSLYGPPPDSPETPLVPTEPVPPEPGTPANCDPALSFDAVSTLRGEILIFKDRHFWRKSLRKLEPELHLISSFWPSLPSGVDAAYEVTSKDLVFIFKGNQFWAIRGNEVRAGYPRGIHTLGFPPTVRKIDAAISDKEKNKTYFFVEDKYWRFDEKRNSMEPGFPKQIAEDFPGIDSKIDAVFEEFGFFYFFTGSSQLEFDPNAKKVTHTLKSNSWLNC

[3] = target: Matrix metalloproteinase-9 (Homo sapiens, UniProt P14780); test: Inhibition of MMP9
Chain of Matrix metalloproteinase-9 (P14780 whole entry): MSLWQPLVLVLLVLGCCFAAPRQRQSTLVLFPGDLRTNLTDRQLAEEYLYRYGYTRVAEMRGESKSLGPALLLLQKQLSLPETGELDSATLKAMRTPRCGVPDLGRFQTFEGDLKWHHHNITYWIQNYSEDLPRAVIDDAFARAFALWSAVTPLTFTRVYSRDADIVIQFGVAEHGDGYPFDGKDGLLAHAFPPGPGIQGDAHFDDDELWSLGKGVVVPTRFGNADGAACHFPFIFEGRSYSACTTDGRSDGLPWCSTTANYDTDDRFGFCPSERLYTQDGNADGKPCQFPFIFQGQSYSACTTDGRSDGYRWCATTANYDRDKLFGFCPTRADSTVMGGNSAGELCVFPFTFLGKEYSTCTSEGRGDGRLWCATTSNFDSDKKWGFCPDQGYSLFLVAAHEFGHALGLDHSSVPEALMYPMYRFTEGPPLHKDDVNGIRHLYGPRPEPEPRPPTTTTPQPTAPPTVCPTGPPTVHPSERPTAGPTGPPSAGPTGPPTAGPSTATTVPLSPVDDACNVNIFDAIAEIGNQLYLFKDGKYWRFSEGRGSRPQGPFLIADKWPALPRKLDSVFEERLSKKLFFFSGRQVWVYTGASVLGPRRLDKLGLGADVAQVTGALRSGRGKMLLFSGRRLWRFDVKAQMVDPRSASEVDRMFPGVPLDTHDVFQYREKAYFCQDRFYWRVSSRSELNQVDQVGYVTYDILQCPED

[4] = Clearance in murine; assay type: ADME, organism-based; settings: mouse, in vivo
[5] = Protein binding in murine plasma; assay type: ADME, organism-based; settings: mouse, read-out: PPB (converted)
[6] = AUC (0-24h) in murine at 10 mg/kg, po; assay type: ADME, organism-based; design: time < 24 hr, dose 10 mg/kg, route oral; settings: mouse, in vivo
[7] = Cmax in murine at 10 mg/kg, po; assay type: ADME, organism-based; design: dose 10 mg/kg, route oral; settings: mouse, in vivo
[8] = target: Receptor tyrosine-protein kinase erbB-2 (Homo sapiens) (UniProt P04626); test: Inhibition of Her2 sheddase activity in BT474 cell line; assay type: functional, cell-based; settings: BT-474
Chain of Receptor tyrosine-protein kinase erbB-2 (Homo sapiens) (P04626 whole entry): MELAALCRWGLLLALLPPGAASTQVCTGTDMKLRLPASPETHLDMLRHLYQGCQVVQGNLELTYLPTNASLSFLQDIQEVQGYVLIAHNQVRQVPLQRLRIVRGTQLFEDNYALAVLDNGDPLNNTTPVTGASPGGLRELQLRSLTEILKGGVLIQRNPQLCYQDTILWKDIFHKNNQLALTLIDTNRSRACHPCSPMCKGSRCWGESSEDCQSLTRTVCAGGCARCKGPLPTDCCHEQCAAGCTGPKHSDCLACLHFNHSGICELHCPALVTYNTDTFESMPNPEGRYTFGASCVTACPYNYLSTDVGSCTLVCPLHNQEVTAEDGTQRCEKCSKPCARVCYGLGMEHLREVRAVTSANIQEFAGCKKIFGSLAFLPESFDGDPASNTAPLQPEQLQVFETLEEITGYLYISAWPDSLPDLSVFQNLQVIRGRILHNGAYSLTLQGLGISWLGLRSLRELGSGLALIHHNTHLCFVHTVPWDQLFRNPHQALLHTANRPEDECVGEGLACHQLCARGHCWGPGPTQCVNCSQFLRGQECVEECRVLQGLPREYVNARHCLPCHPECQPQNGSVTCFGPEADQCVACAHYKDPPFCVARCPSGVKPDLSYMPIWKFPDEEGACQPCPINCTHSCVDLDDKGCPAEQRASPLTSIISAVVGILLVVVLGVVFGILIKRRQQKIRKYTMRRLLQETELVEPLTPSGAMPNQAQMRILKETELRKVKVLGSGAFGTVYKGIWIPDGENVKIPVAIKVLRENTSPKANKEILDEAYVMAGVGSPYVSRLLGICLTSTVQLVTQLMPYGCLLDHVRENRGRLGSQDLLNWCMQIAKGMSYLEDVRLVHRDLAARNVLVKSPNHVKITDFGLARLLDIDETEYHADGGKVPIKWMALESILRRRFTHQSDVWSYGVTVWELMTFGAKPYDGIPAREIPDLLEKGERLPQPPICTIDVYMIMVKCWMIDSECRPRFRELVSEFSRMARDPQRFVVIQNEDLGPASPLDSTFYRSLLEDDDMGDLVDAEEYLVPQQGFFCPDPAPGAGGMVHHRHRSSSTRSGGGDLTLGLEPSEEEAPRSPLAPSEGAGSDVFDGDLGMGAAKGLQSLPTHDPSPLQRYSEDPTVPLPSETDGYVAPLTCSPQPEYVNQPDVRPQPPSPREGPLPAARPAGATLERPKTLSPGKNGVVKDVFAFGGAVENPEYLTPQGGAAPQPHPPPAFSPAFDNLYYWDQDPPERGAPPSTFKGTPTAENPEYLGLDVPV

IC50 [1] [nM] | IC50 (Interstitial collagenase) [µM] | IC50 [2] [nM] | IC50 (Stromelysin-1) [µM] | IC50 [3] [µM] | clearance [4] [mL/min/kg] | fraction unbound [5] | AUC(0-t) at 24 h [6] [µM·h] | Cmax [7] [µM] | Activity [8] | SMILES
110 | > 5 | > 1000 | > 1 | > 5 | – | – | – | – | – | Cc1cc([N+](=O)[O-])ccc1N1CCN(C(=O)[C@H]2NCC3(CC3)C[C@@H]2C(=O)NO)CC1
– | > 5 | 39 | 4 | 0.428 | 6.67 | 0.7 | 3.9 | 7.7 | – | COC(=O)N1CC2(CC2)C[C@H](C(=O)NO)[C@H]1C(=O)N1CC=C(c2ccccc2)CC1
23 | 2.5 | 13 | 0.45 | 0.077 | – | – | – | – | – | O=C(NO)[C@H]1CC2(CC2)CN[C@@H]1C(=O)N1CC=C(c2ccccc2)C1
– | > 5 | > 1000 | > 1 | > 5 | – | – | – | – | inactive | CCC(C)NC(=O)[C@@H]1[C@@H](C(=O)NO)CC2(CC2)CN1C (stereo partly specified)
480 | – | – | – | – | – | – | – | – | – | O=C(NO)[C@H]1CCCN[C@@H]1C(=O)N1CC[C@H](c2ccccc2)C1
– | > 5 | 960 | > 3 | > 3 | – | – | – | – | – | O=C(NO)[C@H]1CC2(CC2)CN[C@@H]1C(=O)N1CC[C@H](c2ccccc2)C1
320 | > 5 | 450 | > 5 | > 5 | – | – | – | – | – | O=C(NO)[C@H]1CC2(CC2)CN[C@@H]1C(=O)N1CCC(c2ccccc2)CC1
77 | > 5 | 64 | > 1 | > 5 | – | – | – | – | – | CN1CC2(CC2)C[C@H](C(=O)NO)[C@H]1C(=O)N1CC=C(c2ccccc2)CC1
– | > 5 | 200 | > 5 | 0.65 | – | – | – | – | – | O=C(NO)[C@H]1CC2(CC2)CN[C@@H]1C(=O)N1CCN(c2ccccc2)CC1
330 | > 5 | 350 | > 5 | > 5 | – | – | – | – | – | O=C(NO)[C@H]1CC2(CC2)CN[C@@H]1C(=O)N1CCN2c3ccccc3CC2C1 (stereo partly specified)
310 | > 5 | 150 | > 5 | > 5 | – | – | – | – | – | CN1CC2(CC2)C[C@H](C(=O)NO)[C@H]1C(=O)N1CCN(c2ccccc2)CC1
720 | > 5 | > 5000 | > 5 | > 5 | – | – | – | – | – | CC1=C(c2ccccc2)CCN(C(=O)[C@H]2NCC3(CC3)C[C@@H]2C(=O)NO)C1
– | 3.9 | 5 | 1.2 | 0.113 | 15 | 0.4 | 0.35 | 0.58 | – | O=C(NO)[C@H]1CC2(CC2)CN[C@@H]1C(=O)N1CC=C(c2ccccc2)CC1
> 5000 | > 5 | > 5000 | > 5 | > 5 | – | – | – | – | inactive | Cc1ccccc1N1CCN(C(=O)[C@H]2NCC3(CC3)C[C@@H]2C(=O)NO)CC1
130 | > 5 | > 5000 | > 5 | > 5 | – | – | – | – | – | Cc1cc([N+](=O)[O-])ccc1C1=CCN(C(=O)[C@H]2NCC3(CC3)C[C@@H]2C(=O)NO)CC1
